Reference: patent US4960698A, “Process for producing L-654,040, antibacterial agent” (Merck & Co., Inc., priority 1989, dated 1990)
Values after ≈ are worked out from the molar mass of the structure shown. “Also recorded” adds a separate entry of the source.

What was measured:
Eubcterium limosum 3344 = assay: agar dilution MIC, anaerobic, Wilkens-Chalgren agar; type: cell-based; settings: 10^6 cfu/spot, 35° C., 48 hours
Protocol: (a) Wilkens-Chalgren agar was used instead of antagonist-free medium (Roche);
(b) The inoculum/spot was about 10^6 instead of about 10^4 ;
(c) The incubation period was for 48 hours, not 24 hours; and
(d) Incubations were performed under anaerobic conditions.
*Agar dilution assay, multipoint inoculator, WilkensChalgren agar,
inoculum 10^6 cfu/spot, incubation at 35° C. for 48 hours.

numerous microorganisms = assay: in vitro antibacterial potency (general statement); type: cell-based
[1] = system: Bordetella bronchiseptica (3771); assay: protection and survival of infected mice; settings: intraperitoneal, 160 mg/kg ×2
Staph. aureus 2865 = assay: agar dilution MIC, antagonist-free medium (Roche); settings: Table II
E. coli DC2 4353 = assay: agar dilution MIC, antagonist-free medium (Roche); settings: E. coli permeability mutant, Table II
[2] = system: Pasteurella multocida (4678); assay: protection and survival of infected mice; settings: intraperitoneal; for survival time: 160 mg/kg ×2
Pasteurella multocida = assay: combined therapy with erythromycin in infected mice; settings: intraperitoneal, vs erythromycin alone
solubility in water = settings: water solutions for injection
[3] = mouse, in vivo

| SMILES | MIC (Eubcterium limosum 3344) [µg/mL] | potency in vitro (numerous microorganisms) | survival time ([1]; 160 mg/kg) | survival time ([1]; listed as L-654.040, 160 mg/kg) | sensitivity of strain (Staph. aureus 2865) | sensitivity of strain (E. coli DC2 4353) | statistical significance of prolonged survival (in words) [2] | survival time ([2]; 160 mg/kg) | survival time ([2]; listed as L-654.040, 160 mg/kg) | efficacy of combined therapy with erythromycin (Pasteurella multocida) | solubility in water (in words) (solubility in water) | tolerability in uninfected mice [3] |
| --- | --- | --- | --- | --- | --- | --- | --- | --- | --- | --- | --- | --- |
| CO[C@@]1(NC(=O)Cc2cccs2)C(=O)N2C(C(=O)O)=C(COC(N)=O)CS[C@@H]21 [CEFOXITIN, Cefoxitin, reference compound] | 1 (≈ 2.34 µM) |  |  |  |  |  |  |  |  |  |  |  |
| C[C@H](CNC(=O)[C@H]1N=C(c2cccc(O)c2O)O[C@@H]1C)C(=O)N[C@@H]1CCCN(O)C1=O [L-654,040] | 128 (≈ 295 µM) | showing potency in vitro against numerous microorganisms | prolongation of survival time was observed | did prolong the survival time | sensitive | sensitive | statistically significant at one level in two Pasteurella tests | prolongation of survival time was observed; also recorded: increases survival time | did prolong the survival time | slightly more effective than erythromycin alone but not to a degree considered to be synergistic | limited solubility | tolerated by uninfected mice |
